Measured values from US9090668B2, “Process for synthesizing cyclic peptide compound” (THE UNIVERSITY OF TOKYO, priority 2007, dated 2015).
*1 amine or outer side, *2 acyl side, *3 side chain or, on linkers, in order; H or OH if unused. Where a SMILES comes first, the peptide text is derived from it. Bridges are numbered along the chain shown (N, C = ends). [ ]: non-standard residue; d: D form. The star is where a group is joined. hMet = CSCCC[C@H](N)C(=O)O; Orn = NCCC[C@H](N)C(=O)O; Dab = NCC[C@H](N)C(=O)O; X1 = O=C(C[*:2])[*:1]; For = O=C*

Assays:
proteinase K = proteinase K (Parengyodontium album, UniProt P06873); test: Protease resistance of peptides against proteinase K, analysed by MALDI-MS; type: in vitro ADME; conditions: 5 μg/ml proteinase K, 37° C., 1 hour
Description: Translationally synthesized peptides and purchased Urotensin II peptides were reacted in 5 μg/ml of a proteinase K solution at 37° C. for 1 hour in the presence of, or in the absence of, 1 mM DTT.

Urotensin II receptor = biological target: T1, Urotensin II receptor (Homo sapiens, UniProt Q9UKP6); test: Calcium mobilization measurement in HEK-UTR cells (Fluo-4-AM fluorescence); type: cell-based; conditions: HEK-UTR cells (HEK cells expressing an Urotensin II receptor)
T1 construct: expressed in transfected cells; host or cells: HEK cells (HEK-UTR)
T1 sequence (Q9UKP6 1-389): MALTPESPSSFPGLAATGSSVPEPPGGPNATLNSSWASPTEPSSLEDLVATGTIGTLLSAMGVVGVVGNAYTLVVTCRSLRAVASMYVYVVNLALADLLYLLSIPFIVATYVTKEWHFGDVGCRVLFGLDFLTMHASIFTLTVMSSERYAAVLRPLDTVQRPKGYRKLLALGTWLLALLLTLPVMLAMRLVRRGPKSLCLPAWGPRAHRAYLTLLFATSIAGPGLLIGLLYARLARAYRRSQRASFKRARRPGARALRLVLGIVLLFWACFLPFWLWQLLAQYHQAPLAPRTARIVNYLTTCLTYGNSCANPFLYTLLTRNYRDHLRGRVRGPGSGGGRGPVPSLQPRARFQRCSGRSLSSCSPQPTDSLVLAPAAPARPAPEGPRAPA
Description: FIG. 10 illustrates calcium mobilization in cells by addition of peptides using a fluorescent reagent. 2×10^5 HEK-UTR cells (HEK cells expressing an Urotensin II receptor) were seeded into a 96 well plate. After 12-16 hours, the cells were incubated in 1 μM Fluo-4-AM (Dojindo Laboratories) for 1 hour. After the incubation was completed, the fluorescent reagent was removed, and 90 μL of an assay buffer (Hanks Balanced Salts Solution (HBSS), 10 mM HEPES, 200 μM of CaCl2, 0.1% BSA, and 2.5 mM probenecid) was added. Then, 10 μL of peptides dissolved in an assay buffer was added, and changes in an intensity of fluorescent light were measured by a microplate reader. The peptides were prepared by purifying the translation product by Zip-tip (Millipore) and distilling off the elute under reduced pressure.

proteinase K, sequence (P06873 106-384, species assumed): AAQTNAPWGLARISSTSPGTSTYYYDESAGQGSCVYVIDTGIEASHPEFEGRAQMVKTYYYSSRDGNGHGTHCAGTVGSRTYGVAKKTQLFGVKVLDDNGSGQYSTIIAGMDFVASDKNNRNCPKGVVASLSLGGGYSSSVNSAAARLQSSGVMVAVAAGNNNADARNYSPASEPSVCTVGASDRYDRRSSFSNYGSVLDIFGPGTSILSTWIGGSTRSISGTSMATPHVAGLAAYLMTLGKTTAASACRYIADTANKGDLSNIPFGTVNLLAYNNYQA

Structure (SMILES)	degradation by proteinase K (proteinase K)	degradation by proteinase K after change into linear form by DTT (proteinase K; in the presence of 1 mM DTT)	calcium mobilization in cells (change in fluorescence intensity) (Urotensin II receptor)
CC(C)[C@H](NC(=O)[C@@H]1CSSC[C@H](NC(=O)[C@H](CC(=O)O)NC(=O)[C@@H]2CCCN2C(=O)[C@@H](NC(=O)[C@@H](N)CCC(=O)O)[C@@H](C)O)C(=O)N[C@@H](Cc2ccccc2)C(=O)N[C@@H](Cc2c[nH]c3ccccc23)C(=O)N[C@@H](CCCCN)C(=O)N[C@@H](Cc2ccc(O)cc2)C(=O)N1)C(=O)O [Urotensin II]	not degraded	decomposed	–
CSCCC[C@H](NC=O)C(=O)N1CCC[C@H]1C(=O)N[C@@H](CC(=O)O)C(=O)N[C@H]1CCNC(=O)CSC[C@@H](C(=O)N[C@H](C(=O)O)C(C)C)NC(=O)[C@H](Cc2ccc(O)cc2)NC(=O)[C@H](CCCN)NC(=O)[C@H](Cc2c[nH]c3ccccc23)NC(=O)[C@H](Cc2ccccc2)NC1=O [YS9] (For-[hMet]PD[Dab]FW[Orn]YCV-OH; linker 4-9 via X1)	not degraded	–	calcium mobilization in the cells was observed
CSCC[C@H](NC=O)C(=O)N1CCC[C@H]1C(=O)N[C@@H](CC(=O)O)C(=O)N[C@@H](CC(C)C)C(=O)N[C@@H](Cc1ccccc1)C(=O)N[C@@H](Cc1c[nH]c2ccccc12)C(=O)N[C@@H](CCCCN)C(=O)N[C@@H](Cc1ccc(O)cc1)C(=O)N[C@@H](CS)C(=O)N[C@H](C(=O)O)C(C)C [YS10] (For-MPDLFWKYCV-OH; N-terminus and C-terminus assumed)	degraded	–	–
